Assay results: patent publication US20190289849A1, “Novel Plant Growth Regulators and Methods of Using Same” (Duke University, priority 2016, published 2019)
“Also recorded” adds a separate entry of the source.

Columns and labels:
Arabidopsis = assay: High concentration (10 mM) apocarotenoid effects on plant growth; type: in vivo; details: for herbicidal effect when sprayed on plants / method of lethality (phenotype): 10 mM per FIG. 11; for lateral root growth / root length / shoot mass: 10 mM
Protocol: FIG. 10 illustrates the effect of high doses of β-cyclocitral and DHAD on root growth. A) The effect of adding small volumes of 10 mM apocarotenoids daily to either the shoots, root tip, or the middle of the root. B) A confocal image of a healthy root stained with propidium iodide, which marks dead cells. C) A root treated with 10 mM β-cyclocitral applied to the tip of the root.
FIG. 11 illustrates the effect of 10 mM apocarotenoids on plant development. A) The percent change in lateral root capacity, normalized to control plants. Abbreviations: dihydro-β-ionone (DHβI), dimethyl-β-cyclocitral (DMβC). β-cyclocitral (β-cyc), pseudoionone (PI), and dihydroactinidiolide (DHAD). B) Confocal image of a control root stained with propidium iodide. C) Image of a root treated with safranal. D) Images of leaves form a control plant. E) Images of leaves from a plant treated with pseudoionone.
At high concentrations (10 mM) of β-cyclocitral or DHAD, root length, shoot mass, and lateral root growth were inhibited. […] In one embodiment, safranal may be detrimental to Arabidopsis at concentrations as low as 500 μM.

Arabidopsis thaliana [1] = assay: Lateral root capacity (emerged lateral roots after removal of the primary root apical meristem); type: in vivo; details: for rescue of D15 inhibition of lateral root branching: D15-treated plants, apocarotenoid concentration varied for maximum rescue; for lateral root capacity / branching in combination with D15 (screen): 30 μM D15 plus apocarotenoid, normalized to D15 treatment
Heinz tomatoes = assay: Tomato primary and lateral root growth; type: in vivo
Protocol: Heinz tomatoes were used for all tomato experiments. Seeds were sterilized using 40% liquid bleach for 30 min, then plated on 1% MS media in 120×120×17 mm square petri dishes. Seeds were kept in the dark at room temperature for 3 days, and then exposed to 100-130 μmol/(m^2s^1) illumination and grown vertically under long-day conditions at 22° C. For treating tomatoes, β-cyclocitral, norflurazone, and D15 were added directly to the media, at the concentrations described in the figures. Norflurazone was diluted to a final concentration of 1 μM in media. Tomato phenotypes were analyzed at 6 das. To measure lateral root capacity, the primary root apical meristem of each seedling was sterilely excised at 7 days. The plants were given 3 days to grow out lateral roots, and then each emerged lateral root was counted using a dissection microscope, as described previously (Van Norman et al., Proceedings of the National Academy of Sciences of the United States of America, 2014. 111(13): p. […]-[…]). Luciferase activity was measured as previously described, using exposure times of 7 min (Moreno-Risueno, M. A., et al., Science, 2010. 329(5997): p. 1306-1311). WOX5^+ and EN7^+ primordia were counted using a stereo zoom microscope (Zeiss). Lateral and primary root lengths for Arabidopsis thaliana and tomato were measured using ImageJ (National Institutes of Health) software. 3D images of rice root architecture were captured using a 360° revolving platform and these images were analyzed using GiA Roots (www.giaroots.org), as described previously by Topp (2013). Primary root lengths were determined by dissecting the root and measuring the length with a ruler. Shoot mass was measured after removing the shoots and drying them for 10 days at 60° C.

lateral root primordia = assay: Lateral root primordia counts with WOX5 (stage 1) and EN7 (stage 3) markers, and primordia emergence; type: in vivo, Arabidopsis thaliana
Protocol: All seeds were in the Columbia-0 background. Seeds were sterilized with chlorine gas, incubated in 4° C. water for 2 days, and plated on 1% (wt/vol) Murashige and Skoog (1% MS) media with 1% agar. They were exposed to 100-130 μmol/(m^2s^1) illumination and grown vertically under long-day conditions at 22° C. Plants were analyzed at 7 days after stratification (das), unless noted otherwise. D15-treated media was made using D15 (N-(4-fluorobenzyl)-methoxycinnamic hydroxamic acid) synthesized by LeadGen Labs, LLC solubilized in DMSO. 100 mM D15 stock solution was diluted directly into 1% MS media for final concentrations ranging from 1 μM to 100 μM. For initial experiments testing the ability of apocarotenoids to rescue D15, plants were seeded on 1% MS media containing 30 μM D15 and 100 nM apocarotenoid (diluted from 1 mM stock solutions dissolved in DMSO). For subsequent experiments characterizing the effect of β-cyclocitral, plants were exposed to volatile analytical grade β-cyclocitral (≥97%, Sigma Aldrich) using 100×15 mm partitioned petri dishes. One side of the partition was filled with 25 μM β-cyclocitral diluted in 1% MS media. Seeds were plated on the other side of the partition, on 1% MS media. […] For norflurazone treatments, norflurazone (Chem Service) dissolved in DMSO was diluted to a final concentration of 500 nM norflurazone in 1% MS media. For all experiments, including those performed on tomatoes and rice, plants were never exposed to DMSO concentrations that exceeded 0.1%.
(§1) To measure lateral root capacity, the primary root apical meristem of each seedling was sterilely excised at 7 days. The plants were given 3 days to grow out lateral roots, and then each emerged lateral root was counted using a dissection microscope, as described previously (Van Norman et al., Proceedings of the National Academy of Sciences of the United States of America, 2014. 111(13): p. E1300-E1309). Luciferase activity was measured as previously described, using exposure times of 7 min (Moreno-Risueno, M. A., et al., Science, 2010. 329(5997): p. 1306-1311). WOX5^+ and EN7^+ primordia were counted using a stereo zoom microscope (Zeiss). Lateral and primary root lengths for Arabidopsis thaliana and tomato were measured using ImageJ (National Institutes of Health) software. 3D images of rice root architecture were captured using a 360° revolving platform and these images were analyzed using GiA Roots (www.giaroots.org), as described previously by Topp (2013). Primary root lengths were determined by dissecting the root and measuring the length with a ruler. Shoot mass was measured after removing the shoots and drying them for 10 days at 60° C.
First, the effect of D15 on lateral root branching was characterized and is shown FIG. 1. […] NCEDs are a sub-group of CCDs that cleave carotenoids at the 11, 12′ positions. […] By titrating D15 to its IC50 concentration (30 μM), the lateral root capacity was measured with enhanced sensitivity (FIGS. 1A-B). To determine how D15 inhibits lateral root branching, its effect on the lateral root clock, which establishes the sites of lateral root initiation, was examined. To test this, a synthetic promoter driving luciferase (pDR5:LUC) was utilized. In control roots, luminescence intensity oscillates every six hours (FIG. 1C). Only the root cells that experience the peak oscillation intensity become competent to form lateral root pre-branch sites. […] To further characterize the effect of D15 on lateral root initiation, its effect on two stages of primordia development was determined, as marked by WOX5 (pWOX5:GFP) and EN7 (pEN7:GAL4; UAS:H2A-GFP). These lines allow visualization of the QC at stage 1 of primordia development and the endodermis at stage 3 of development, respectively. […] This further supports the lateral root clock evidence that D15 inhibits the initiation of lateral root primordia.

Arabidopsis thaliana [2] = assay: Primary and lateral root growth on exposure to volatile β-cyclocitral; type: in vivo
[3] = system: Azucena (tropical japonica) rice; assay: Rice root system architecture and shoot weight; type: in vivo
Protocol: as §1, with “Azucena (tropical japonica) seeds were dehulled and germinated in the dark for 3 days at 30° C. Germinated seeds were transferred to Yoshida's nutrient solution, solidified with 0.25% gelzan (Caisson Laboratories, Inc.), in 2 L glass cylinders, as described previously (Topp, C. N., et al., Proceedings of the National Academy of Sciences of the United States of America, 2013. 110(18): p. […]-[…].). Rice roots were imaged at 12 das. To measure” for “To measure”, “111(13): p. […]-[…]). Luciferase activity” for “111(13): p. E1300-E1309). Luciferase activity”

LeCCD1 = details: in vitro; cited from earlier work
lateral root clock = assay: Lateral root clock luminescence (pDR5:LUC) and pre-branch sites; type: in vivo, Arabidopsis thaliana
Protocol: as §1
First, the effect of D15 on lateral root branching was characterized and is shown FIG. 1. […] By titrating D15 to its IC50 concentration (30 μM), the lateral root capacity was measured with enhanced sensitivity (FIGS. 1A-B). […]

[4] = IC50 concentration of D15 (30 μM)

CC1=C(C=O)C(C)CCC1 (stereo not shown)
herbicidal effect when sprayed on plants (Arabidopsis): herbicidal effects
rescue of D15 inhibition of lateral root branching (Arabidopsis thaliana [1]): did not have the capacity to rescue

CC1=CC(=O)CC(C)(C)[C@@]1(O)/C=C/C(C)=C\C(=O)O [ABA, abscisic acid, reference compound]
lateral root capacity / branching in combination with D15 (screen) (Arabidopsis thaliana [1]): further decreased

CC1(C)CCC[C@@]2(C)OC(=O)C=C12 [DHAD, dihydroactinidiolide]
lateral root growth (Arabidopsis): inhibited
root length (Arabidopsis): inhibited
shoot mass (Arabidopsis): inhibited
lateral root capacity / branching in combination with D15 (screen) (Arabidopsis thaliana [1]): increase lateral root branching
rescue of D15 inhibition of lateral root branching (Arabidopsis thaliana [1]): only partially rescue

CC1=C[C@H](O/C=C2/C(=O)O[C@@H]3c4ccccc4C[C@H]23)OC1=O [GR24, reference compound]
lateral root capacity / branching in combination with D15 (screen) (Arabidopsis thaliana [1]): further decreased

CNc1cnn(-c2cccc(C(F)(F)F)c2)c(=O)c1Cl [norflurazone, 4-chloro-5-(methylamino)-2-(α,α,α-trifluoro-m-tolyl)-3(2H)-pyridazinone]
primary and lateral root growth (Heinz tomatoes; tomato, 1 μM norflurazone in media): decreased
effect on lateral root development (primordia initiation, maintenance, development, emergence) (lateral root primordia; 500 nM norflurazone in media): blocks normal lateral root development; also recorded: blocked primordia initiation as well as maintenance, post-initiation development, and emergence

CC(=O)/C=C/C=C(\C)CCC=C(C)C [pseudoionone]
herbicidal effect when sprayed on plants (Arabidopsis): herbicidal effects
method of lethality (phenotype) (Arabidopsis): caused plants to become chlorotic

CC1=C(C=O)C(C)(C)CC=C1 [safranal]
herbicidal effect when sprayed on plants (Arabidopsis): herbicidal effects
method of lethality (phenotype) (Arabidopsis): changed root cell morphology

CC1=C(C=O)C(C)(C)CCC1 [β-cyclocitral]
rescue of D15 primary root inhibition (Heinz tomatoes; tomato, D15 plus exogenous β-cyclocitral): could not be rescued
lateral root length (Heinz tomatoes; tomato, dose-dependent): significant increase
rescue of primary root growth in norflurazone-treated plants (Heinz tomatoes; tomato, norflurazone plus β-cyclocitral): fully rescued
primary root length (Heinz tomatoes; tomato, uninhibited plants): significantly increased
WOX5+ primordia initiation (lateral root primordia; in D15-treated plants): did not rescue
WOX5+ sites (lateral root primordia; in the absence of D15): did not increase
number of EN7+ primordia (lateral root primordia; in the absence of D15, p=0.12): did increase
number of EN7+ primordia (lateral root primordia; in the presence of D15, p=0.02): did increase
primary and lateral root emergence (Arabidopsis thaliana [2]; exogenous volatile application, in the presence and absence of D15): increased
lateral root length (Arabidopsis thaliana [2]; with or without co-treatment of D15): increases
lateral root growth (Arabidopsis): inhibited
root length (Arabidopsis): inhibited
shoot mass (Arabidopsis): inhibited
root growth (Arabidopsis; 10 mM applied only to the root tip): sufficient to reduce root growth
lateral root capacity / branching in combination with D15 (screen) (Arabidopsis thaliana [1]): increase lateral root branching
rescue of D15 inhibition of lateral root branching (Arabidopsis thaliana [1]): fully rescue
crown root growth ([3]; Azucena rice): dramatically increasing
primary root growth ([3]; Azucena rice): dramatically increasing
root system depth and compactness vs control plants ([3]; Azucena rice, 10 μM β-cyclocitral per FIG. 8): deeper and more compact
lateral root length ([3]; rice): decreased
shoot growth ([3]; rice): remained unchanged
dry shoot weight ([3]; rice plants): does not significantly change

CC(=O)/C=C/C1=C(C)CCCC1(C)C [β-ionone]
rescue of D15 inhibition of lateral root branching (Arabidopsis thaliana [1]): did not have the capacity to rescue

N-(4-fluorobenzyl)-methoxycinnamic hydroxamic acid [D15]
lateral root length (Heinz tomatoes; Heinz tomatoes, D15 treatment): does not decrease
primary root length (Heinz tomatoes; tomato, D15 treatment): decreased
lateral root branching (Heinz tomatoes; tomato, p=0.99): did not have a negative effect
enzyme preference, LeCCD1 compared to LeNCED1 (LeCCD1): preferentially targets LeCCD1
decrease in number of stage 1 (WOX5) lateral root primordia (lateral root primordia; [4]): approximately 50%
decrease in number of stage 3 (EN7) lateral root primordia (lateral root primordia; [4]): approximately 50%
emergence of lateral root primordia compared to control roots (lateral root primordia; in vivo): did not inhibit
lateral root capacity, maximum effect (Arabidopsis thaliana [1]; 100 μM D15): completely inhibited
IC50 (Arabidopsis thaliana [1]; D15 in 1% MS media, read-out: IC50 concentration for lateral root capacity): 30 µM
peak oscillation intensity of pDR5:LUC luminescence vs control roots (lateral root clock; D15-treated roots (100 μM per FIG. 1)): significantly lower
number of pre-branch sites (lateral root clock; D15-treated roots, p=0.009): significantly decreased
